In patent US20200360365A1, “SUBSTITUTED HALO-QUINOLINE DERIVATES FOR USE IN THE TREATMENT OF LYMPHOMAS AND LEUKEMIA” (Instutut National de la Sante et de la Researche Medicale, priority 2018, published 2020):
Where two headings read alike, the source gives them in different places.

Key:
[1] = system: pancreas carcinoma (MiaPaca 2); assay: Cancer cell proliferation assay (trypan blue exclusion), MiaPaca-2; type: cell-based, human; details: 10 μM; proliferation normalized to DMSO-treated control
Description: (§1) Cancer cell proliferation assay (A375, A549, PC3, HT-29, MiaPaca-2 and MCF-7)
(§2) The tested cancer cells are the following: human melanoma cells (A375), lung carcinoma cells (A549), prostate cancer cells (PC3), colon adenocarcinoma (HT29), pancreas carcinoma (MiaPaca 2) and breast carcinoma (MCF-7).
(§3) Cells were counted using a Malassez chamber. The average and standard deviation were calculated from triplicate experiments. Antiproliferative effects were evaluated by trypan blue exclusion assay. Briefly, cells were seeded into 12-well plate and grown in media supplemented with indicated compound at 1 or 10μM for 48h or 96h. Cells were washed with PBS and detached by trypsinization, collected and colored by trypan blue.
(§4) Dead and living cells were counted and proliferation was calculated as follow: Proliferation (%)=[(treated cell number/untreated cells number)*100].
(§5) As a comparison, cell viability was also determined and calculated as follow: Viability (%)=100−[(dead cell number/total cells)*100].

breast carcinoma (MCF-7) = assay: Cancer cell proliferation assay (trypan blue exclusion), MCF-7; type: cell-based, human; details: 10 μM; proliferation normalized to DMSO-treated control
Description: as §1, §2, §3, §4, §5

[2] = system: colon adenocarcinoma (HT29); assay: Cancer cell proliferation assay (trypan blue exclusion), HT29; type: cell-based, human; details: 10 μM; proliferation normalized to DMSO-treated control
Description: as §1, §2, §3, §4, §5

[3] = system: IFN-γ in supernatant of A375 cancer cells; assay: ELISA measurement of IFN-γ in supernatant; type: cell-based, human; details: 10 μM, 96 h
Description: Supernatant from cells treated for 96 h was tested for human or mouse IFN-γ content via ELISA (peprotech, cat 900-k27 and 900-k98) kit following the manufacturer's instructions.

[4] = system: senescence-associated β-galactosidase (SA-β-Gal); assay: Quantitative senescence-associated beta-galactosidase assay; type: cell-based; details: SA-β-Gal 4-MUG cleavage; relative to DMSO-treated control
Text: Quantitative Senescence-Associated Beta-Galactosidase Assay
The production of the fluorophore was monitored at an […] wavelength of 365/460 nm, as reported (Gary and Kindell, 2005)

[5] = system: prostate cancer cells (PC3); assay: Cancer cell proliferation assay (trypan blue exclusion), PC3; type: cell-based, human; details: 10 μM; proliferation normalized to DMSO-treated control
Description: as §1, §2, §3, §4, §5

[6] = system: p21 (CDKN1A) mRNA in A375 cancer cells; assay: Quantitative RT-PCR analysis of p21 gene expression; type: cell-based, human; details: 10 μM, 96 h
Description: (§6) Quantitative RT-PCR Analysis of EZH2 and p21 Gene Expression
(§7) Total RNA was isolated from cells using the RNAeasy minikit (Qiagen) according to the manufacturer's procedure. Reverse transcription was performed using the AMV reverse transcription system (Promega), and quantitative PCR was performed with Power Sybr green (Applied Biosystems, Life Technologies, Grand Island, N.Y.) following the manufacturer's instructions. The PCR was carried out on a Step One plus Real-Time PCR system (Applied Biosystems). All analyses were done in triplicate, and a melting curve analysis was performed to control for product quality and specificity. Expression levels were calculated using the comparative method of relative quantification, with SB34 as a normalizer. The data were analyzed for statistical significance using Student's t-test. The results are presented as the mean±SEM relative to the control.
(§8) PCR primers for EZH2 (accession number NM004456.4) and p21(CDKN1A) (accession number NM078467.2) were obtained from primer bank or primer depot (http://pga.mgh.harvard.edu/primerbank/, https://primerdepot.nci.nih.gov), and their specificity was verified using primer blast (http://www.ncbi.nlm.nih.gov/tools/primer-blast/).

[7] = system: EZH2 mRNA in A375 cancer cells; assay: Quantitative RT-PCR analysis of EZH2 gene expression; type: cell-based, human; details: 10 μM, 96 h
Description: as §6, §7, §8

[8] = system: lung carcinoma cells (A549); assay: Cancer cell proliferation assay (trypan blue exclusion), A549; type: cell-based, human; details: 10 μM; proliferation normalized to DMSO-treated control
Description: as §1, §2, §3, §4, §5

melanoma cell line A375 = assay: In vitro dose response study, A375 proliferation; type: cell-based, human; details: A375, 96h; for IC50: Homo sapiens, A-375, graded concentration, cell concentration
Description: The melanoma cell line A375 was treated during 96h with graded concentration of compounds 5, 38, 42 and 43. At the end of the culture period, the cell concentration was determined.

human melanocytes (MHN) = assay: Melanocyte viability assay (MHN); type: cell-based; details: 10 μM, 96 h; viability normalized to DMSO-treated control
Description: Melanocyte Viability Assay (MHN)
Cell viability effects were evaluated by trypan blue exclusion assay. Briefly, cells were seeded into 12-well plate and grown in media supplemented with indicated compound at 10 μM for 96 h. Cells were washed with PBS and detached by trypsinization, collected and colored by trypan blue. Dead and living cells were counted and cell viability was calculated as follow: Viability (%)=100−[(dead cell number/total cells)*100].

[9] = system: human melanoma cells (A375); assay: Cancer cell proliferation assay (trypan blue exclusion), A375; type: cell-based; details: 10 μM; proliferation normalized to DMSO-treated control
Description: as §1, §2, §3, §4, §5

[10] = Microsomal stability (mouse liver microsomes); type: in vitro ADME; details: mouse liver microsomes 0.5 mg/mL, NADPH 1 mM, 37° C.
Description: Microsomal Stability (Mouse Liver Microsomes)
Microsomal stability was evaluated with mouse liver microsomes (0.5 mg/mL) and NADPH cofactor (1 mM) at 37° C. The percentage of remaining compound is determined at 5 min by LC-MS by measuring the area under the peak of compound on the chromatogram.

Solubility = type: physicochemical
[11] = system: plck-GAPDH tumor (AITL-like lymphoma) engrafted in NSG mice; assay: Treatment of plck-GAPDH AITL lymphoma engrafted NSG mice; type: in vivo, mouse
Description: Tumor Transplantation into NOD/SCIDγc−/− (NSG) Mice
Single cell suspensions from spleen or lymph nodes of old (>18 months) plck-GAPDH mice with splenomegaly were injected intravenously (i.v.) into 6-8 week old NSG mice (1-2E7 splenocytes per mouse). Recipient mice were sacrificed for evaluation when the mice became weak and/or splenomegaly could be detected (30 to 60 days after injection). The different hematopoietic organs (liver, spleen, blood) were isolated and single cell suspension prepared for FACS analysis (see below).
Treatment with NIK Inhibitor
Plck-GAPDH tumors were injected into 10 NSG mice (see above) and 5 were treated with a newly developed chemical NIK inhibitor (compound 5 according to the invention) or with Vehicle. IP injections were performed every other day with compound 5 (250 μg in 100 μl DMSO/Tween-20/Labrafil) or vehicle (100 μl DMSO/Tween-20/Labrafil). The second NIK inhibitor used (compound 38 according to the invention) was more soluble and IP injections were performed every other day with compound 38 (250 μg in 100 μl NaCl 0,9%/mouse) or vehicle (100 μl NaCl 0,9%/mouse).
Two different plck-GAPDH tumors expressing high levels of PD-1 on the CD4^+ T cells were injected into 10 NSG mice and the mice were treated with anti-PD1 antibody (clone PMP1-14, BioXcell; 125 μg in PBS/mouse) or an isotope control antibody daily for the first 2 days post-tumor injection, then every other day.
Combined anti-PD1 and NIK Inhibitor Treatment
The mice were injected with antibody (anti-PD1 or isotype control) in the morning and compound 38 according to the invention (injected in the evening) daily for the first 2 days plck-GAPDH post-tumor injection, then every other day. Same concentration as for single treatments was used.
Recipient mice were sacrificed at endpoint (>10% weight loss or palpable splenomegaly). Single cell suspensions were prepared from the spleen, BM and liver for immunophenotypic FACS analysis.

[12] = system: human Diffuse large B-cell lymphoma (DLBCL) B cell lines (U2932, KARPAS 422, SUDHL6, OCYL3); assay: B cell lymphoma proliferation assay; type: cell-based; details: 10 μM, 96 h
Description: B Cell Lymphoma Proliferation Assay
The tested cancer cells are the following: the human Diffuse large B-cell lymphoma (DLBCL) cell lines: Karpas-422, SUDHL-6, U2932 and Oxyl3.
Cells were counted using a flow cytometer (MACQUANT, Miltenyi). 2E5 cells were seeded in 2 ml RPMI-GlutamaX supplemented with 10% FCS at start of the proliferation assay in a 6-well plate supplemented with the NIK Inhibitor (compound 38) at 10 μM for 96 h. The cell numbers at 96h were then determined by counting using a flow cytometer. We distinguished dead and living cells using DAPI staining.
Proliferation was calculated as followed:
Proliferation (%)=(Treated cell number/untreated cells)*100.
The average and standard deviation were determined from 3 independent experiments.

NIK = NIK (Homo sapiens, UniProt Q99558); details: patent PCT/EP2017/067306; cited from earlier work
[13] = plck-GAPDH tumor engrafted NSG mice

NIK, sequence (Q99558 whole entry): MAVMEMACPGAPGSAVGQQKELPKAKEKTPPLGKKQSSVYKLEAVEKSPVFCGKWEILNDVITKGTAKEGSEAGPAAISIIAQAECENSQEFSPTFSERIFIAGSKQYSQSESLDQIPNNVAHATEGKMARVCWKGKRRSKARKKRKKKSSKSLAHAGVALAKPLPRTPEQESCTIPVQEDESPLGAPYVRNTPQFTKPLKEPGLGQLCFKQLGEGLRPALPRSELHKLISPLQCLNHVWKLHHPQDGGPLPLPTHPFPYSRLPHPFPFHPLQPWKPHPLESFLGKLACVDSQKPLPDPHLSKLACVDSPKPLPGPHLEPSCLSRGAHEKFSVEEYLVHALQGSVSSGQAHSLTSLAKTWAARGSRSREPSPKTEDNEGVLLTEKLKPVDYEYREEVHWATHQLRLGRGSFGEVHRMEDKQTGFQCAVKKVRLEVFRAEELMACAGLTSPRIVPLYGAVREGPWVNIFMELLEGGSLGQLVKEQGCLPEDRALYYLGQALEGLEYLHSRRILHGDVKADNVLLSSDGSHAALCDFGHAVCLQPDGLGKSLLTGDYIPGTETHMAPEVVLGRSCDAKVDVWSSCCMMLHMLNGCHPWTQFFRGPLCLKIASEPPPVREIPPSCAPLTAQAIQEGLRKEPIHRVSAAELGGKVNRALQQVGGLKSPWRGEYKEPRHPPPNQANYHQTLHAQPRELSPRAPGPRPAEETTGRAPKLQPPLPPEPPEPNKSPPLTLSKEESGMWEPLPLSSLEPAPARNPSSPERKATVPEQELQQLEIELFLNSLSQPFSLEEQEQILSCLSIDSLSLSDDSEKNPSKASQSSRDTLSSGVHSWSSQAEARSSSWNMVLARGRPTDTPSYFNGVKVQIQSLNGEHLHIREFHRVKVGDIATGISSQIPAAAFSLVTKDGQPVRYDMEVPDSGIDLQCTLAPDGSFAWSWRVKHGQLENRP

Row | SMILES | Cancer Cell Proliferation MiaPaca-2 [1] | Cancer Cell Proliferation MCF-7 (breast carcinoma (MCF-7)) | Cancer Cell Proliferation HT29 [2] | ELISA IFN-γ (A375), IFN-γ concentration [3] | % Senescence, conversion rate [4] | Cancer Cell Proliferation PC3 [5] | qPCR p21 A375 mRNA [6] | qPCR EZH2 A375 mRNA [7] | Cancer Cell Proliferation A549 [8] | concentration at which inhibition of A375 proliferation starts (melanoma cell line A375) | Cancer Cell Proliferation A375 [9] | IC50 (melanoma cell line A375) | anti-NIK activity (NIK) | also measured
1 | COCCOc1ccc(Nc2ccnc3cc(Cl)ccc23)cc1 [Compound 42, 7-chloro-N-(4-(2-methoxyethoxy)phenyl)quinolin-4-amine] | 7.8% | 11.9% | 3.5% | 1.73 (ng/mL)/millions cells | 645.9% | 14.1% | 6.79 fold relative to DMSO-treated control | 0.23 fold relative to DMSO-treated control | 19.5% | around 5 mM | 6.9% |  |  | Heathly Cell Viability MHN (human melanocytes (MHN)): 99.0%
2 | COc1ccc(Nc2ccnc3cc(Cl)ccc23)cc1O [Compound 43, 7-chloro-N-(3-(hydroxy)-4-(methoxy)phenyl)quinolin-4-amine] | 32.4% | 29.5% | 15.6% | 0.41 (ng/mL)/millions cells | 1875.1% | 55.0% | 3.08 fold relative to DMSO-treated control | 0.62 fold relative to DMSO-treated control | 51.1% | around 5 mM | 30.5% |  |  | Microsomal stability, mouse liver (5 min), percentage of the remaining compound [10]: 41% ± 3; Microsomal stability, mouse liver (5 min), percentage of the remaining compound ([10]; listed as compound 43): 41%
3 | COc1ccc(Nc2ccnc3cc(Cl)ccc23)cc1OC [Compound 38, N-(3,4-dimethoxyphenyl)-7-chloroquinolin-4-amine] |  |  |  |  |  |  |  |  |  | around 5 mM |  | 560 nM | potent | solubility (Solubility): more soluble; solubility (Solubility; listed as COMPONENT 38): high solubility; survival of the plck-GAPDH tumor engrafted mice ([11]; NSG mice, compound 38 250 μg IP, anti-PD1 125 μg, every other day): up to 60%; B cells in the spleen at sacrifice [11, 13]: highly significant decrease; CD4+ T cells in the spleen [11, 13]: strong reduction; Tfh PD1high CD4+ population in the spleen [11, 13]: residual subpopulation; spleen size at sacrifice compared to controls [11, 13]: significant decrease in spleen size; CD8 cytotoxicity (IFNγ, granzyme B, perforin by cytotoxic CD8+ cells) ([11]; splenocytes at sacrifice, PMA/ionomycin 5 h): increasing CD8 IFNγ release; proliferation of B cell lymphoma cancer cell lines compared with controls (DMSO) [12]: strong inhibitory effect; cell viability of B cell lymphoma cell lines ([12]; data not shown): without affecting the cell viability
4 | COc1ccc(Nc2ccnc3cc(Cl)ccc23)cc1 [Compound 5, N-(4-methoxyphenyl)-7-chloroquinolin-4-amine] |  |  |  |  |  |  |  |  |  | around 5 mM |  | 1330 nM | confirmed its activity in vitro | GC B cells in the spleen at sacrifice [11, 13]: completely devoid of GC B cells; survival of tumor engrafted NSG mice as compared to the control group ([11]; plck-GAPDH tumor engrafted NSG mice, IP treatment day 1 and 2, then every other day): significant increased survival
